Assays:
mPTP [1] = test: mPTP activity (Ca2+ retention) assay in isolated rat brain mitochondria; type: biochemical; conditions: isolated rat brain mitochondria; Fluo5N fluorescence at 10 min after Ca2+ (75 μM) bolus
Description: MPTP activity was measured in brain mitochondria freshly isolated from female Sprague Dawley (250 to 300 gram) rats. Anaesthetised rats were perfused in-situ with ~40 ml cold Dulbecco's Phosphate Buffered Saline (DPBS), then brains dissected and transferred into 30 ml Isolation Buffer (225 mM mannitol, 75 mM sucrose, 1 mM EGTA, adjusted to pH 7.4 with 1M NaOH). The brain was minced using tweezers and a scalpel into ~5 mm pieces then transferred into a 50 ml Potterton Dounce homogenization tube on ice containing 10 ml ice-cold isolation buffer (as above with addition of Complete Protease inhibitor; 1 tablet per 50 ml buffer). Homogenisation was carried out using a Teflon® pestle at 1800 rpm. The slurry was centrifuged at 2000 g for 10 min at 4° C., then the supernatant centrifuged at 12,000 g for 9 min. The pellet was resuspended with a dounce homogeniser in isolation buffer as above but with the addition of 0.02% digitonin, centrifuged at 12,000 g for 11 min and finally resuspended in 5 ml modified isolation buffer (as above but with EGTA reduced to 0.1 mM).
Test compounds were prepared in 384 well polypropylene assay plates as described above for the liver mitochondria assay. A stock mitochondria/Fluo5N assay solution was prepared in 5.6 ml assay buffer (120 mM mannitol, 40 mM MOPS, 5 mM KH2PO4, 60 mM KCl, 10 mM pyruvate, 2 mM malate, 2 mM MgCl2, 20 μM ADP, 1.26 μM oligomycin A, adjusted to pH 7.4) supplemented with Fluo5N pentapotassium salt (2 μM) and 1 ml mitochondria suspension, then transferred (15 μl) into the assay plate containing test compounds and incubated for 10 min at RT. Assay plates were then transferred to a FLIPR Tetra plate reader (Molecular Devices). Dye fluorescence was then measured every 3 sec for a total of 10 min.

mPTP [2] = test: mPTP activity (Ca2+ retention) assay in isolated rat liver mitochondria; type: biochemical; conditions: isolated rat liver mitochondria; Fluo5N fluorescence at 10 min after CaCl2 (75 μM) bolus; DMSO 0%, 5 μM cyclosporin A 100% inhibition
Source text: Pharmacological inhibition or modulation of the mPTP can be measured in well characterised ‘Ca^2+ retention’ assays performed in isolated mitochondria. In vitro, isolated mitochondria rapidly sequester exogenous Ca^2+ until the intramitochondrial Ca^2+ concentration reaches the threshold for mPTP activation. Once the pore is activated, mitochondrial integrity is compromised and the stored Ca^2+ is released. The distribution of Ca^2+ between extra- and intra-mitochondrial compartments can be measured in real time with the use of membrane-impermeant Ca^2+ sensitive fluorescent dyes. Depending on the configuration of the assay, inhibition or modulation of the mPTP either delays the opening of the pore or increases the concentration of Ca^2+ required to induce mPTP opening.
MPTP activity was measured in mitochondria freshly isolated from female Sprague Dawley (250 to 300 gram) rat livers using the following method. Cervical dislocation was performed on the rat. The liver was then perfused in-situ with ~40 ml cold Dulbecco's Phosphate Buffered Saline (DPBS) prior to dissection and transferred into 30 ml Isolation Buffer (250 mM Sucrose, 10 mM KCl, 1 mM EGTA, 1 mM EDTA, 25 mM HEPES, adjusted to pH 7.5 with 1M NaOH). Each lobe of the liver was then removed from the buffer, minced using tweezers and a scalpel into ~5 mm pieces then transferred into a 50 ml Potterton dounce homogenization tube on ice containing 30 ml ice-cold centrifugation buffer (300 mM Trehalose, 25 mM HEPES, 1 mM EGTA, 1 mM EDTA, 10 mM KCl, adjusted to pH 7.5 with 1M NaOH and supplemented with 0.1% bovine serum albumin (BSA) and complete protease inhibitor cocktail (one tablet of inhibitor per 50 mls of buffer). Homogenisation was carried out using a Teflon® pestle at 1800 rpm. The slurry was centrifuged at 800 g for 10 min at 4° C., then the supernatant centrifuged at 10,000 g for 10 min. The pellet was washed once with FLIPR assay buffer (75 mM Mannitol, 25 mM Sucrose, 5 mM Potassium Phosphate Monobasic, 20 mM Tris base, 100 mM KCl, 0.1% BSA adjusted to pH 7.4 with 5M HCl) centrifuged again, then resuspended in FLIPR assay buffer to a concentration of 8.8 mg/ml protein.
Tested compounds (10 mM stock in DMSO) were serially diluted in DMSO in half log steps to generate 10 test concentrations (final concentrations in assay 30 μM to 1 nM). An intermediate dilution of 5 μl DMSO samples into 247 μl FLIPR assay buffer was carried out prior to transfer of 5 μl into duplicate wells of a 384 well polypropylene assay plate. Control wells were 0.5% (v/v) DMSO and 5 μM cyclosporin A.
A stock mitochondria/Fluo5N assay solution was prepared in 5.6 ml FLIPR assay buffer (at RT) supplemented with succinate disodium salt (10 mM), rotenone (1 μM), Fluo5N pentapotassium salt (2 μM) and 1 ml mitochondria suspension, then transferred (15 μl) into the assay plate containing test compounds and incubated for 10 min at RT. Assay plates were processed for fluorescence detection on either a FLIPR Tetra (Molecular Devices) or CLARIOstar (BMG) plate reader. For kinetic fluorescence detection on the FLIPR, dye fluorescence was measured every 3 sec for a total of 10 min. After 12 sec, a 2.5 μl bolus of CaCl2 (75 μM) was added from a source plate containing 675 μM CaCl2 in FLIPR assay buffer. Alternatively, the 2.5 μl addition of CaCl2 was performed using a Viaflow 384, plates were incubated at RT for 10 min, and dye fluorescence measured after 10 min on the CLARIOstar plate reader. pIC50 values for tested compounds were calculated using the fluorescence value collected at the 10 min timepoint on either plate reader, with % inhibition calculated using the DMSO control and cyclosporin A values as 0 and 100% respectively.

## O=C(c1nccc(=O)[nH]1)N1CC(c2ccccc2)C2(CCC2)C1 (racemic) [Example 18, rac-2-{8-phenyl-6-azaspiro[3.4]octane-6-carbonyl}-3H-pyrimidin-4-one]
mPTP [1]
  mPTP Rat brain pIC50: 6.56
mPTP [2]
  mPTP Rat liver pIC50*: 5.52

## O=C(c1cncc(O)c1)N1CC(c2ccccc2)C2(CCC2)C1 (single isomer, unassigned) [Example 1b, (5-hydroxypyridin-3-yl)(8-phenyl-6-azaspiro[3.4]octan-6-yl)methanone]
mPTP [1]
  mPTP Rat brain pIC50: 6.94
mPTP [2]
  mPTP Rat liver pIC50*: 6.01

## O=C(c1cncc(O)c1)N1CC(c2ccccc2)C2(CCC2)C1 (single isomer, unassigned) [Example 1c, (5-hydroxypyridin-3-yl)(8-phenyl-6-azaspiro[3.4]octan-6-yl)methanone]
mPTP [2]
  mPTP Rat liver pIC50*: <4.52

## Cn1nc(C(=O)N2C[C@@H](c3ccccc3)C3(CCC3)C2)[nH]c1=O (single isomer, unassigned) [Example 5b]
mPTP [1]
  mPTP Rat brain pIC50: 6.55
mPTP [2]
  mPTP Rat liver pIC50*: 5.33

## Cn1nc(C(=O)N2C[C@H](c3ccccc3)C3(CCC3)C2)[nH]c1=O (single isomer, unassigned) [Example 5c]
mPTP [1]
  mPTP Rat brain pIC50: <4.52
mPTP [2]
  mPTP Rat liver pIC50*: <4.52

## O=C(c1cncc(O)n1)N1CC(c2ccccc2)C2(CCC2)C1 (single isomer, unassigned) [Example 6a, (6-hydroxypyrazin-2-yl)(8-phenyl-6-azaspiro[3.4]octan-6-yl)methanone]
mPTP [1]
  mPTP Rat brain pIC50: 7.34
mPTP [2]
  mPTP Rat liver pIC50*: 6.39

## O=C(c1cncc(O)n1)N1CC(c2ccccc2)C2(CCC2)C1 (single isomer, unassigned) [Example 6b, (6-hydroxypyrazin-2-yl)(8-phenyl-6-azaspiro[3.4]octan-6-yl)methanone]
mPTP [1]
  mPTP Rat brain pIC50: <4.52
mPTP [2]
  mPTP Rat liver pIC50*: 4.59

## CC1(C)CN(C(=O)c2cncc(=O)[nH]2)CC1c1ccccc1 (single isomer, unassigned) [Example 10a, 6-(3,3-dimethyl-4-phenylpyrrolidine-1-carbonyl)pyrazin-2(1H)-one]
mPTP [1]
  mPTP Rat brain pIC50: 7.03
mPTP [2]
  mPTP Rat liver pIC50*: 6.18

## CC1(C)CN(C(=O)c2cncc(=O)[nH]2)CC1c1ccccc1 (single isomer, unassigned) [Example 10b, 6-(3,3-dimethyl-4-phenylpyrrolidine-1-carbonyl)pyrazin-2(1H)-one]
mPTP [1]
  mPTP Rat brain pIC50: 6.07
mPTP [2]
  mPTP Rat liver pIC50*: 5.19

## O=C(c1cnn[nH]1)N1CC(c2ccccc2)C2(CCC2)C1 (single isomer, unassigned) [Example 14a, 8-Phenyl-6-(3H-1,2,3-triazole-4-carbonyl)-6-azaspiro[3.4]octane]
mPTP [1]
  mPTP Rat brain pIC50: 5.21
mPTP [2]
  mPTP Rat liver pIC50*: 5.23

## O=C(c1cnn[nH]1)N1CC(c2ccccc2)C2(CCC2)C1 (single isomer, unassigned) [Example 14b, 8-phenyl-6-(3H-1,2,3-triazole-4-carbonyl)-6-azaspiro[3.4]octane]
mPTP [2]
  mPTP Rat liver pIC50*: <4.52

## CCC1CN(C(=O)c2cncc(=O)[nH]2)CC1c1ccccc1 (single isomer, unassigned) [Example 15a, 6-(3-ethyl-4-phenylpyrrolidine-1-carbonyl)pyrazin-2(1H)-one]
mPTP [1]
  mPTP Rat brain pIC50: 6.1
mPTP [2]
  mPTP Rat liver pIC50*: 5.27

## CCC1CN(C(=O)c2cncc(=O)[nH]2)CC1c1ccccc1 (single isomer, unassigned) [Example 15b, 6-(3-ethyl-4-phenylpyrrolidine-1-carbonyl)pyrazin-2(1H)-one]
mPTP [1]
  mPTP Rat brain pIC50: 4.81
mPTP [2]
  mPTP Rat liver pIC50*: <4.52

## CCC1CN(C(=O)c2cncc(=O)[nH]2)CC1c1ccccc1 (single isomer, unassigned) [Example 15c, 6-(3-ethyl-4-phenylpyrrolidine-1-carbonyl)pyrazin-2(1H)-one]
mPTP [1]
  mPTP Rat brain pIC50: 5.93
mPTP [2]
  mPTP Rat liver pIC50*: 5.24

## CCC1CN(C(=O)c2cncc(=O)[nH]2)CC1c1ccccc1 (single isomer, unassigned) [Example 15d, 6-(3-ethyl-4-phenylpyrrolidine-1-carbonyl)pyrazin-2(1H)-one]
mPTP [1]
  mPTP Rat brain pIC50: <4.52
mPTP [2]
  mPTP Rat liver pIC50*: <4.52

## O=C(c1cncc(=O)[nH]1)N1CC(c2ccc(Cl)cc2)C2(CCC2)C1 (single isomer, unassigned) [Example 16a, 6-[8-(4-Chlorophenyl)-6-azaspiro[3.4]octane-6-carbonyl]-1H-pyrazin-2-one]
mPTP [1]
  mPTP Rat brain pIC50: 6.39
mPTP [2]
  mPTP Rat liver pIC50*: 5.58

## O=C(c1cncc(=O)[nH]1)N1CC(c2ccc(Cl)cc2)C2(CCC2)C1 (single isomer, unassigned) [Example 16b, 6-[8-(4-Chlorophenyl)-6-azaspiro[3.4]octane-6-carbonyl]-1H-pyrazin-2-one]
mPTP [1]
  mPTP Rat brain pIC50: <4.52
mPTP [2]
  mPTP Rat liver pIC50*: <4.52

## O=C(c1noc(=O)[nH]1)N1CC(c2cccc(F)c2)C2(CCC2)C1 (single isomer, unassigned) [Example 49a, 3-(8-(3-fluorophenyl)-6-azaspiro[3.4]octane-6-carbonyl)-1,2,4-oxadiazol-5(4H)-one]
mPTP [2]
  mPTP Rat liver pIC50*: 6.52

## O=C(c1noc(=O)[nH]1)N1CC(c2cccc(F)c2)C2(CCC2)C1 (single isomer, unassigned) [Example 49b, 3-(8-(3-fluorophenyl)-6-azaspiro[3.4]octane-6-carbonyl)-1,2,4-oxadiazol-5(4H)-one]
mPTP [1]
  mPTP Rat brain pIC50: <4.52

## O=C(c1cc(O)ccn1)N1CC(c2ccccc2)C2(CCC2)C1 (centres unmarked) [Example 3, (4-hydroxypyridin-2-yl)(8-phenyl-6-azaspiro[3.4]octan-6-yl)methanone]
mPTP [2]
  mPTP Rat liver pIC50*: 5.14

## Cn1nc(C(=O)N2CC(c3ccccc3)C3(CCC3)C2)[nH]c1=O (centres unmarked) [Example 5a, 2-methyl-5-(8-phenyl-6-azaspiro[3.4]octane-6-carbonyl)-2,4-dihydro-3H-1,2,4-triazol-3-one]
mPTP [2]
  mPTP Rat liver pIC50*: 5.04

## O=C(c1cncc(=O)[nH]1)N1CC2(CCC2)C1c1ccccc1 (centres unmarked) [Example 12, 6-(1-phenyl-2-azaspiro[3.3]heptane-2-carbonyl)pyrazin-2(1H)-one]
mPTP [2]
  mPTP Rat liver pIC50*: <4.52

## CC1CN(C(=O)c2cncc(=O)[nH]2)CC1c1ccccc1 (centres unmarked) [Example 13, 6-(3-methyl-4-phenylpyrrolidine-1-carbonyl)pyrazin-2(1H)-one]
mPTP [2]
  mPTP Rat liver pIC50*: 4.55

From US20260226031A1, “NOVEL COMPOUNDS” (NRG THERAPEUTICS LTD., priority 2023, published 2026)
